Test results: BindingDB's records for patent US20250270173 (Gilgamesh Pharmaceuticals, 2025)

What follows are compounds tested against 5-hydroxytryptamine receptor 2A (Homo sapiens, UniProt P28223) (assay: 5-HT2A Receptor Binding Assay).
5-hydroxytryptamine receptor 2A, sequence (P28223 whole entry): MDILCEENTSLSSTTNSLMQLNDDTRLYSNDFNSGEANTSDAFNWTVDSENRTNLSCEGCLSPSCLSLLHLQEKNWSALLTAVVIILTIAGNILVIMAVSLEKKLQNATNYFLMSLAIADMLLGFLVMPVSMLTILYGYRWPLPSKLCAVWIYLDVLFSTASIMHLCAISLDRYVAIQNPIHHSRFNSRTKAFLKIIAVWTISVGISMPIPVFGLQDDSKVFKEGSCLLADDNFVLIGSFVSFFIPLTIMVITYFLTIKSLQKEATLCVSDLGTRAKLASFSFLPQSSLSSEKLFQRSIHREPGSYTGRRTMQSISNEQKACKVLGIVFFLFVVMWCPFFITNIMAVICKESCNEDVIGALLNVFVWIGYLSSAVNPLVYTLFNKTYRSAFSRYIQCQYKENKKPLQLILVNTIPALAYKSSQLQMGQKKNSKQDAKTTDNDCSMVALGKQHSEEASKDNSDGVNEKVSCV
COc1cc(C)c(OC)nc1CC(C)N (configuration not stated) [US20250270173, Compound 5] gave a Ki of 1170 nM.
In the case of COc1cc(Br)c(OC)nc1CC(C)N (configuration not stated) [US20250270173, Compound 6], the Ki is reported as 168 nM.
Work on COc1cc(C)c(OC)nc1CCN [US20250270173, Compound 8] yielded a Ki of 1120 nM.
For COc1cc(Br)c(OC)nc1CCN [US20250270173, Compound 9], the Ki was 99.2 nM.
Compound CCCCCc1nc(OC)c(CC(N)CC)cc1OC (configuration not stated) [US20250270173, Compound 11] has a Ki of 273 nM.
With CCCCCc1nc(OC)c(CC(N)CC)nc1OC (configuration not stated) [US20250270173, Compound 12] the Ki was 693 nM.
Work on CCSc1cc(OC)c(CCN)nc1OC [US20250270173, Compound 22] yielded a Ki of 82.8 nM.
CCSc1cc(OC)c(CC(C)N)nc1OC (configuration not stated) [US20250270173, Compound 23] showed a Ki of 344 nM.
With CCSc1cc(OC)c(CC(N)CC)nc1OC (configuration not stated) [US20250270173, Compound 24] the Ki was 649 nM.
COc1cc(C2CC2)c(OC)nc1CCN [US20250270173, Compound 26] showed a Ki of 150 nM.
In the case of CCCCCCc1cc(OC)c(CCN)nc1OC [US20250270173, Compound 29], the Ki is reported as 0.91 nM.
CCCc1cc(OC)c(CC(N)CC)nc1OC (configuration not stated) [US20250270173, Compound 37] showed a Ki of 106 nM.
